Reference: patent publication US20250066341A1 (CHIESI FARMACEUTICI S.P.A., priority 2021, published 2025)

Molecular target: T1, human recombinant LPA1 expressed in CHO cells (Homo sapiens, UniProt Q92633)
T1 construct: expressed in transfected cells; host or cells: CHO cells (CHO-hLPA1 cell line)
Experiment: FLIPR calcium mobilization assay, LPA1 antagonism in CHO-hLPA1 cells
Type: cell-based
Details: inhibition of LPA EC80 Ca2+ response, 30 min pre-incubation, expressed as range of activity
Method: The effectiveness of compounds of the present invention as LPA1 antagonist can be determined at the human recombinant LPA1 expressed in CHO cells, using a FLIPR assay in 384 well format.
CHO-hLPA1 cell lines are cultured in a humidified incubator at 5% C02 in DMEM/F-12 (1:1) MIXTURE with 2 mM Glutamax, supplemented with 10% of Foetal Bovine Serum, 1 mM Sodium Pyruvate, 11 mM Hepes and 1× Penicillin/Streptomycin. […] Serial dilutions (1:3 or 1:4, 11 points CRC) of compounds are performed in 100% DMSO at 200× the final concentration. […] The final concentration of DMSO in the assay will be 0.5% in each well. Medium is removed by aspiration and cells are then incubated with 30 μl of a loading solution containing 5 μM of the cytoplasmic Ca2+ indicator Cal-520 AM in Assay Buffer containing 2.5 mM probenecid for 30 min at 37° C. incubator (cell loading). The loaded cell plates are transferred into the FLIPR instrument and calcium responses are monitored during the on-line addition protocols. For testing of compounds, after the cell loading, 10 μl/well of 4× antagonists' solution was added onto the cells. After 30 min pre-incubation (at 37° C.), 10 μl/well of 5× concentrated LPA EC80 was added and Ca2+ mobilization responses was followed during the on-line addition protocol. Intracellular peak fluorescence values subtracted by baseline fluorescence are exported and analysed to determine IC50 values, respectively. The calcium response is expressed as percentage of the maximal inhibition of the EC80 agonist response.
The raw data (peak height expressed as relative fluorescence units) are normalized and transformed into “percent of inhibition”. Curve fitting and pIC50 (−LogIC50) estimations are carried out using a four-parameter logistic model using XLfit Software.

T1 sequence (Q92633 whole entry): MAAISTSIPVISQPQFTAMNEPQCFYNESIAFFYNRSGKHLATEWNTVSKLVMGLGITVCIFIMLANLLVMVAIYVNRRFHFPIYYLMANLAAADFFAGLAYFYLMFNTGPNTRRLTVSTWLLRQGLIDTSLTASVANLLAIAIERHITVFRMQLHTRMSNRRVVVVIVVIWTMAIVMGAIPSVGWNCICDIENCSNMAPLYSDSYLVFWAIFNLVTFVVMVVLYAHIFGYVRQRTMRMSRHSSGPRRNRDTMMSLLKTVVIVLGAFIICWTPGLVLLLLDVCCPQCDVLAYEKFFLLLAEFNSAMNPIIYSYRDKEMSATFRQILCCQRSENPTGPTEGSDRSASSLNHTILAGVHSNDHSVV

First: Cc1noc(-c2ccc(NC(=O)C3CCCCC3C(=O)O)cc2)c1Nc1cncc(OC(C)C)n1 (racemic) [Compound 16, 2-((4-(4-((6-isopropoxypyrazin-2-yl)amino)-3-methylisoxazol-5-yl)phenyl)carbamoyl)cyclohexane-1-carboxylic acid]
Second: CC(C)Oc1cncc(Nc2c(-c3ccc(NC(=O)C4CCCCC4C(=O)O)cc3)nnn2C)n1 (racemic) [Compound 43, 2-((4-(5-((6-isopropoxypyrazin-2-yl)amino)-1-methyl-1H-1,2,3-triazol-4-yl)phenyl)carbamoyl)cyclohexane-1-carboxylic acid]
The IC50 of the first is lower: less than 50 nM for the first, 50 to 250 nM for the second. The first is the more potent here.

`Cc1nc(-c2onc(C)c2NS(=O)(=O)CC(C)c2ccccc2)ccc1NC(=O)[C@H]1CCCC[C@@H]1C(=O)O` (mixture of isomers) [Compound 29, rac-(1S,2S)-2-((2-methyl-6-(3-methyl-4-((2-phenylpropyl)sulfonamido)isoxazol-5-yl)pyridin-3-yl)carbamoyl)cyclohexane-1-carboxylic acid] and `Cc1nc(-c2onc(C)c2Nc2cncc(-c3ccccc3)n2)ccc1NC(=O)[C@H]1CCCC[C@@H]1C(=O)O` [Compound 6, (1S,2S)-2-((2-methyl-6-(3-methyl-4-((6-phenylpyrazin-2-yl)amino)isoxazol-5-yl)pyridin-3-yl)carbamoyl)cyclohexane-1-carboxylic acid] cannot be ordered by IC50: less than 50 nM for the first, less than 50 nM for the second.

First: Cc1nc(-c2onc(C)c2NS(=O)(=O)CC(C)c2ccccc2)ccc1NC(=O)[C@H]1CCCC[C@@H]1C(=O)O (single isomer, unassigned) [Compound 30]
Second: Cc1nc(-c2onc(C)c2Nc2cncc(-c3cccnc3)n2)ccc1NC(=O)[C@H]1CCCC[C@@H]1C(=O)O [Compound 7, (1S,2S)-2-((2-methyl-6-(3-methyl-4-((6-(pyridin-3-yl)pyrazin-2-yl)amino)isoxazol-5-yl)pyridin-3-yl)carbamoyl)cyclohexane-1-carboxylic acid]
The IC50 of the first is lower: less than 50 nM for the first, 50 to 250 nM for the second. The first is the more potent here.

First: Cc1noc(-c2ccc(OCC3CCCCC3C(=O)O)cn2)c1NC(=O)O[C@H](C)c1ccccc1Cl (single isomer, unassigned) [Compound 81]
Second: Cc1nc(-c2onc(C)c2Nc2cncc(-c3ccncc3)n2)ccc1NC(=O)[C@H]1CCCC[C@@H]1C(=O)O [Compound 8, (1S,2S)-2-((2-methyl-6-(3-methyl-4-((6-(pyridin-4-yl)pyrazin-2-yl)amino)isoxazol-5-yl)pyridin-3-yl)carbamoyl)cyclohexane-1-carboxylic acid]
The IC50 of the first is lower: less than 50 nM for the first, 50 to 250 nM for the second.

`Cc1nc(-c2onc(C)c2Nc2cncc(OC3CC(F)(F)C3)n2)ccc1NC(=O)[C@H]1CCCC[C@@H]1C(=O)O` [Compound 3, (1S,2S)-2-((6-(4-((6-(3,3-difluorocyclobutoxy)pyrazin-2-yl)amino)-3-methylisoxazol-5-yl)-2-methylpyridin-3-yl)carbamoyl)cyclohexane-1-carboxylic acid] and `Cc1nc(-c2onc(C)c2Nc2cncc(C(F)(F)F)n2)ccc1NC(=O)[C@H]1CCCC[C@@H]1C(=O)O` [Compound 4, (1S,2S)-2-((2-methyl-6-(3-methyl-4-((6-(trifluoromethyl)pyrazin-2-yl)amino)isoxazol-5-yl)pyridin-3-yl)carbamoyl)cyclohexane-1-carboxylic acid] fall in the same range of IC50: 50 to 250 nM for the first, 50 to 250 nM for the second.

First: CCCCNc1cncc(Nc2c(C)noc2-c2ccc(NC(=O)[C@H]3CCCC[C@@H]3C(=O)O)c(C)n2)n1 [Compound 5, (1S,2S)-2-((6-(4-((6-(butylamino)pyrazin-2-yl)amino)-3-methylisoxazol-5-yl)-2-methylpyridin-3-yl)carbamoyl)cyclohexane-1-carboxylic acid]
Second: Cc1nc(-c2onc(C)c2Nc2cncc(C3=CCCCC3)n2)ccc1NC(=O)[C@H]1CCCC[C@@H]1C(=O)O [Compound 10, (1S,2S)-2-((6-(4-((6-(cyclohex-1-en-1-yl)pyrazin-2-yl)amino)-3-methylisoxazol-5-yl)-2-methylpyridin-3-yl)carbamoyl)cyclohexane-1-carboxylic acid]
The IC50 of the first is higher: 250 to 600 nM for the first, less than 50 nM for the second. The second is the more potent here.
